Measurements taken from ChEMBL document CHEMBL1201862, “PubChem BioAssay data set” (2004).
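Each compound was tested at five concentrations against cells in 96-well plates for 48 hours. At the GI50, growth is halved.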 Calls of active or inactive are those of the source. No stated cut-off is given here; in the data, active = GI50 up to about 1.1 µM and inactive = higher.

Columns and labels:
Assay in all cases: NCI-60 cell line screen, 48 h
KM12 = system: KM12
UACC-62 = system: UACC-62
A549 = system: A549
K562 = system: K562
A498 = system: A498
RPMI-8226 = system: RPMI-8226
OVCAR-8 = system: OVCAR-8
SK-OV-3 = system: SK-OV-3
IGROV-1 = system: IGROV-1
SW-620 = system: SW-620
SN12C = system: SN12C
SNB-19 = system: SNB-19
EKVX = system: EKVX
M14 = system: M14
SK-MEL-5 = system: SK-MEL-5
T47D = system: T47D
UO-31 = system: UO-31
SF-295 = system: SF-295
SF-539 = system: SF-539
SNB-75 = system: SNB-75

Measured: GI50

CCCC1=C(OC)C(=O)c2c(C)cc(Cl)nc2C1=O
inactive: KM12 7.29 µM | UACC-62 3.3 µM | A549 13.6 µM | K562 2.02 µM | A498 20.2 µM | RPMI-8226 2.16 µM | OVCAR-8 8.89 µM | SK-OV-3 17 µM | IGROV-1 11.7 µM | SW-620 3.24 µM | SN12C 4.14 µM | SNB-19 14.7 µM | EKVX 7.66 µM | M14 7 µM | SK-MEL-5 4.06 µM | T47D 2.99 µM | UO-31 13.5 µM | SF-295 14.7 µM | SF-539 7.43 µM | SNB-75 7.62 µM

CC1=NNC(=O)[C@H]2[C@H]1CCC1[C@@H]2CC[C@]2(C)[C@@H](O)CC[C@@H]12 (stereo not given in full)
inactive: KM12 > 100 µM | UACC-62 > 100 µM | A549 > 100 µM | K562 > 100 µM | A498 > 100 µM | RPMI-8226 > 100 µM | OVCAR-8 > 100 µM | SK-OV-3 > 100 µM | IGROV-1 > 100 µM | SW-620 > 100 µM | SN12C > 100 µM | SNB-19 > 100 µM | EKVX > 100 µM | M14 > 100 µM | SK-MEL-5 > 100 µM | T47D > 100 µM | UO-31 > 100 µM | SF-295 > 100 µM | SF-539 > 100 µM | SNB-75 12.6 µM

COc1ccc(/C=C2\C(=O)N(C3OC(COC(C)=O)C(OC(C)=O)C(OC(C)=O)C3OC(C)=O)c3ccccc3N=C2N)cc1 (stereo not given)
inactive: KM12 16.9 µM | UACC-62 17.5 µM | A549 29.2 µM | K562 11.9 µM | A498 28.2 µM | RPMI-8226 16 µM | OVCAR-8 19.4 µM | SK-OV-3 27.6 µM | IGROV-1 27.3 µM | SW-620 30.7 µM | SN12C 36.9 µM | SNB-19 42.7 µM | EKVX 26.8 µM | M14 20.7 µM | SK-MEL-5 11.3 µM | T47D 14 µM | UO-31 32.4 µM | SF-295 21.9 µM | SF-539 9.06 µM | SNB-75 23.2 µM

CCOC(=O)C1(NC(=O)OC(C)(C)C)CCc2[nH]oc(=O)c2C1 (stereo not given)
inactive: KM12 9.95 µM | UACC-62 > 100 µM | A549 > 100 µM | K562 > 100 µM | A498 > 100 µM | RPMI-8226 > 100 µM | OVCAR-8 > 100 µM | SK-OV-3 > 100 µM | IGROV-1 > 100 µM | SW-620 > 100 µM | SN12C > 100 µM | SNB-19 > 100 µM | EKVX > 100 µM | M14 > 100 µM | SK-MEL-5 > 100 µM | T47D > 100 µM | UO-31 > 100 µM | SF-295 > 100 µM | SF-539 > 100 µM | SNB-75 > 100 µM
